Source: US11365185B2, “Lysophosphatidic acid receptor 1 (LPAR1) inhibitor compounds” (Eli Lilly and Company, priority 2017, dated 2022)
Where a name gives a salt, the structure may show the parent alone.

Legend:
[1] = target: T1, LPAR1 (Homo sapiens (Human), UniProt Q92633); experiment: LPAR1 Calcium Flux Assay; assay type: cell-based; conditions: U937 cells overexpressing human LPAR1, LPA-stimulated calcium, FLIPR
Procedure: LPAR1 Calcium Flux Assays
(§1) A cDNA encoding the human LPAR1 receptor is synthesized and cloned into pDNA3 expression plasmid. The plasmid is transfected in U937 cells using Lipofectamine 2000 (Invitrogen Corp., USA). Clones stably expressing human LPAR1 are selected using puromycin and identified as cells that show Ca-influx in response to LPA.
U937 cells overexpressing human LPAR1 are seeded at 100,000 cells per well in a 96-well fibronectin (10 ug/ml) coated plate in 60 μl of assay buffer (HBSS containing 20 mM HEPES and 0.2% BSA) and then incubated for 60 minutes. Then 50 μl of a calcium indicator dye (Fluo-4 NW, Molecular Probes) are added to each well and incubation continued for 30 minutes at 37° C. and then 30 minutes at room temperature. 50 μl of test compounds in 4% DMSO are added to the cells and incubation continued at room temperature for 40 minutes. Cells are the stimulated by the addition of 50 μl of 128 nM LPA and intracellular calcium is measured using the FLIPR TETRA (Molecular Devices). IC50 values are determined using “Genedata Screener” analysis tool.
Target sequence in this assay (Q92633 whole entry): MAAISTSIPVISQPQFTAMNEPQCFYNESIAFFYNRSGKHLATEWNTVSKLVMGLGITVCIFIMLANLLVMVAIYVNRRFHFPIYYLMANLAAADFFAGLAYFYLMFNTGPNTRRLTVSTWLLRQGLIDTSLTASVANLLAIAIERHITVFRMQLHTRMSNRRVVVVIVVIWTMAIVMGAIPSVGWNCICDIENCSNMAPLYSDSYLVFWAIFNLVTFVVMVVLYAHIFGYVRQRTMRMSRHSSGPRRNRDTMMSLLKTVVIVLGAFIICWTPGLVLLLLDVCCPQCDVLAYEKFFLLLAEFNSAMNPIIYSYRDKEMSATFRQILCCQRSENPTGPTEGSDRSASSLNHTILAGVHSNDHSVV

[2] = target: human LPAR3 (Homo sapiens (Human), UniProt Q9UBY5); experiment: LPAR3 Calcium Flux Assay; assay type: cell-based; conditions: U2OS cells overexpressing human LPAR3, LPA-stimulated calcium, FLIPR
human LPAR3, sequence (Q9UBY5 whole entry): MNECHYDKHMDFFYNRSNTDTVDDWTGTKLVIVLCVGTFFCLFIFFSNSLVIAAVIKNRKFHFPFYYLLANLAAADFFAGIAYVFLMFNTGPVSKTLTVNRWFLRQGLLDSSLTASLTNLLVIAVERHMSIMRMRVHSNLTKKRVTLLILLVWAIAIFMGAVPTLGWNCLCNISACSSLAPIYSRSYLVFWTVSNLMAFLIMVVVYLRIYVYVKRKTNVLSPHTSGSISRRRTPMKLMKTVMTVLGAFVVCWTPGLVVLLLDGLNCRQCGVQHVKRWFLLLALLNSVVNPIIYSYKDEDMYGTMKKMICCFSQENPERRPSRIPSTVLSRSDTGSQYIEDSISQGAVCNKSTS
Procedure: LPAR3 Calcium Flux Assays
as §1, with “LPAR3” for “LPAR1”, “U2OS” for “U937”, “neomycin” for “puromycin”
U2OS cells overexpressing human LPAR3 are seeded at 20,000-40,000 cells per well in a 96-well poly-D-lysine coated plate one day before the assay. Prior to the assay, the cells are washed once with assay buffer (HBSS containing 20 mM HEPES and 0.2% BSA) and then incubated in 50 μl of assay buffer for 60 minutes. Then 50 μl of a calcium indicator dye (Fluo-4 NW, Molecular Probes) are added to each well and incubation is continued for 30 minutes at 37° C. and then 30 minutes at room temperature. 50 μl of test compounds in 4% DMSO are added to the cells and incubation continued at room temperature for 40 minutes. Cells are stimulated by the addition of 50 μl of 128 nM LPA and intracellular calcium is measured using the FLIPR TETRA (Molecular Devices). IC50 values are determined using “Genedata Screener” analysis tool.

[3] = tested on: Human hepatic stellate cell line LX-2; experiment: Calcium Influx of Human Hepatic Stellate Cells (LX-2); assay type: cell-based; conditions: LX-2 cells, LPA-stimulated calcium influx
Procedure: Calcium Influx of Human Hepatic Stellate Cells (LX-2)
Human hepatic stellate cell line LX-2 is purchased from EMD Millpore. LX-2 cells are seeded at 20,000-40,000 cells per well in a 96-well poly-D-lysine coated plate one day before the assay. Prior to the assay, the cells are washed once with assay buffer (HBSS containing 20 mM HEPES and 0.2% BSA) and then incubated in 50 μl of assay buffer for 60 minutes. Then 50 μl of a calcium indicator dye (Fluo-4 NW, Molecular Probes) are added to each well and incubation is continued for 30 minutes at 37° C. and then 30 minutes at room temperature. 50 μl of test compounds in 4% DMSO are added to the cells and incubation is continued at room temperature for 40 minutes. Cells are stimulated by the addition of 50 μl of 128 nM LPA and intracellular calcium is measured using the FLIPR TETRA (Molecular Devices). IC50 values are determined using “Genedata Screener” analysis tool.

[4] = target: T1, LPAR1; experiment: LPAR1 Cytokine Release Assay (IL-6, MG63 cells); assay type: cell-based; conditions: LPA-stimulated IL-6 levels, 24 hours, ELISA
Procedure: LPAR1 Cytokine Release Assay
Human MG63 cells are seeded at 20,000 per well in 96-well plates and incubated in MEM medium. One day later, the cell culture medium is removed and 60 μl of test compounds are added to each well. 30 minutes later, 60 μl of LPA (10 μM) are added to each well. 24 hours later, 50 μl of supernatant from each well are taken and IL-6 levels are measure by using ELISA kit (R&D Systems, Cat. No. D6050). IC50 values are determined using “Genedata Screener” analysis tool.
Target sequence in this assay (Q92633 whole entry): as the sequence (Q92633 whole entry) above

[5] = target: T1, LPAR1; experiment: LPAR1 Membrane Binding Assay; conditions: membrane containing LPAR1, radio labeled ligand, SPA
Procedure: LPAR1 Membrane Binding Assay
The ability of a compound to inhibit binding of a ligand (1-(4′-(4-(((benzyloxy)carbonyl)amino)-3-methylisoxazol-5-yl)-[1,1′-biphenyl]-4-yl)cyclopropane-1-carboxylic acid) to LPAR1 is assessed via a membrane binding assay. Membrane containing LPAR1 was purchased from Cerep (Cat. No. 290312RB). Prior to the assay, membrane is thawed and homogenized for 15 seconds. 50 μl of test compounds and 50 μl of radio labeled ligand are added to the 96-well plates and then 50 of μl membrane (50-400 ug/ml) are added. Next, 50 μl of SPA PVT WGA beads are added (1-5 mg/ml) and the plates are sealed and incubated at room temperate for 5 minutes. Radio activity is measured by Beta Counter and IC50 values are determined using “Genedata Screener” analysis tool.
Target sequence in this assay (Q92633 whole entry, species assumed): as the sequence (Q92633 whole entry) above

[6] = Rodent Pharmacokinetics - Mouse PK; assay type: in vivo, C57 mice; conditions: C57, plasma; for AUC / bioavailability: 10 mg/kg; for AUC: PO; for clearance / Vd: intravenous; for Vd: read-out: Vdss; for bioavailability: oral
Procedure: (§2) The pharmacokinetics of compounds are determined in male Sprague-Dawley rats or C57 mice. The rats are administered a single 1 mg/kg intravenous (IV) and 10 mg/kg oral gavage (PO) dose. The vehicles are 20% Captisol w/v in 25 mM NaPO4 buffer, pH8 and 1% hydroxyethylcellulose/0.25% polysorbate 80 and 0.05% antifoam 1510-US in distilled water for the intravenous and oral dose, respectively. Blood samples are collected at predose (PO only), 0.08 (IV only), 0.25, 0.5, 1, 2, 4, 8, 12 and 24 h after initiation of compound administration. Blood samples are centrifuged to obtain plasma. The plasma samples are analyzed by LC-MS/MS to determine compound concentrations.

[7] = Rodent Pharmacokinetics - Rat PK; assay type: in vivo, male Sprague-Dawley rats; conditions: male, Sprague-Dawley, plasma
Procedure: as §2

[8] = tested on: Male C57BL/6J mice; experiment: Mouse Intravenous LPA-Induced Histamine and Eicosanoids Release; assay type: in vivo; conditions: 10 mg/kg orally 2 hours before intravenous LPA; plasma
Procedure: Mouse Intravenous LPA-Induced Histamine and Eicosanoids Release
A mouse intravenous LPA-induced histamine and eicosanoids release model is utilized to determine the in vivo potency of the compounds of the present invention. Male C57BL/6J mice weighing 20-25 grams are given free access to standard mouse chow and water. LPA is dissolved in 0.1% fatty acid-free bovine serum albumin to generate solution at 2 mg/mL. Test compounds are formulated in 0.5% methyl cellulose plus 0.25% Tween 80 to generate required concentrations one day before the experiment and stored in a refrigerator until use. Animals are dosed orally with test compounds at 10 ml/kg 2 hours before the intravenous LPA dosing (300 ug per mouse) with 30 gauge needles through tail vain. Two hours after LPA dosing the animals are euthanized by CO2 suffocate. Blood will be collected by cardiac puncture. Blood samples are kept on ice for more than 5 minutes and centrifuged at 4000 rpm for 10 minutes at 4° C. to generate supernatant plasma. The plasma histamine, methylimidazol acetic acid and eicosanoids levels are measured by LC/MS.

| IC50 [1] | IC50 [2] | IC50 [3] | IC50 [4] | Ki [5] | AUC [6] | clearance [6] | Vd [6] | bioavailability [6] | AUC ([7]; 10 mg/kg, PO) | clearance ([7]; intravenous, 1 mg/kg) | Vd ([7]; intravenous, 1 mg/kg, read-out: Vdss) | bioavailability ([7]; oral, 10 mg/kg) | SMILES | % of inhibition, 9,10-cis epoxide of linoleic acid [8] | % of inhibition, 12-hydroxyeicosatetraenoic acid [8] | % of inhibition, methylimidazoleacetic acid [8] |
| --- | --- | --- | --- | --- | --- | --- | --- | --- | --- | --- | --- | --- | --- | --- | --- | --- |
| 111 nM | > 10000 nM | 21.5 nM | 183 nM | – | – | – | – | – | – | – | – | – | CC(C)c1cncc(Nc2c(-c3ccc(-c4ccc(C5(C(=O)O)CC5)nc4)cn3)cnn2C)n1 [Example 23, Ammonia; 1-[5-[6-[5-[(6-isopropylpyrazin-2-yl)amino]-1-methyl-pyrazol-4-yl]-3-pyridyl]-2-pyridyl]cyclopropanecarboxylic Acid] | – | – | – |
| 24 nM | 2360 nM | 7.94 nM | 6.67 nM | 24.5 nM | – | – | – | – | – | – | – | – | CC(C)c1cncc(Nc2c(-c3ncc(-c4ccc(C5(C(=O)O)CC5)cc4)cn3)cnn2C)n1 [Example 18, 1-[4-[2-[5-[(6-isopropylpyrazin-2-yl)amino]-1-methyl-pyrazol-4-yl]pyrimidin-5-yl]phenyl]cyclopropanecarboxylic acid] | – | – | – |
| 23.6 nM | > 10000 nM | 13.1 nM | 4.79 nM | 18.8 nM | 9.06 µM·h | 2 mL/min/kg | 2 L/kg | 30% | – | – | – | – | CC(C)c1cncc(Nc2c(-c3ccc(-c4ccc(C5(C(=O)O)CC5)cc4)cc3)cnn2C)n1 [Example 26, 1-[4-[4-[5-[(6-isopropylpyrazin-2-yl)amino]-1-methyl-pyrazol-4-yl]phenyl]phenyl]cyclopropanecarboxylic Acid] | – | – | – |
| 30.9 nM | 1170 nM | 10.4 nM | 11.2 nM | – | – | – | – | – | – | – | – | – | Cc1cc(C2(C(=O)O)CC2)ccc1-c1ccc(-c2cnn(C)c2Nc2cncc(C(C)C)n2)nc1 [Example 22, 1-[4-[6-[5-[(6-isopropylpyrazin-2-yl)amino]-1-methyl-pyrazol-4-yl]-3-pyridyl]-3-methyl-phenyl]cyclopropanecarboxylic Acid; Hydrochloride] | – | – | – |
| 54.7 nM | 1830 nM | 23.1 nM | 5.81 nM | – | – | – | – | – | – | – | – | – | CC(C)Cc1cncc(Nc2c(-c3ccc(-c4ccc(C5(C(=O)O)CC5)cc4)cc3)cnn2C)n1 [Example 17, 1-[4-[4-[5-[(6-isobutylpyrazin-2-yl)amino]-1-methyl-pyrazol-4-yl]phenyl]phenyl]cyclopropanecarboxylic Acid] | – | – | – |
| 44 nM | 804 nM | 10.5 nM | – | 28 nM | – | – | – | – | – | – | – | – | Cn1ncc(-c2ccc(-c3ccc(C4(C(=O)O)CC4)cc3)cn2)c1Nc1cncc(C(C)(C)F)n1 [Example 13, 1-[4-[6-[5-[[6-(1-fluoro-1-methyl-ethyl)pyrazin-2-yl]amino]-1-methyl-pyrazol-4-yl]-3-pyridyl]phenyl]cyclopropanecarboxylic Acid; Hydrochloride] | – | – | – |
| 36.3 nM | 1610 nM | 14.1 nM | 8.81 nM | 27.6 nM | 16.3 µM·h | 4.99 mL/min/kg | 1.46 L/kg | 24.8% | – | – | – | – | Cn1ncc(-c2ccc(-c3ccc(C4(C(=O)O)CC4)cc3)cn2)c1Nc1cncc(C(F)(F)F)n1 [Example 21, 1-[4-[6-[1-methyl-5-[[6-(trifluoromethyl)pyrazin-2-yl]amino]pyrazol-4-yl]-3-pyridyl]phenyl]cyclopropanecarboxylic Acid] | – | – | – |
| 29.3 nM | 341 nM | 12 nM | 3.95 nM | 12.7 nM | – | – | – | – | 70.9 µM·h | 2.94 mL/min/kg | 0.721 L/kg | 57.5% | CC(C)Oc1cncc(Nc2c(-c3ccc(-c4ccc(C5(C(=O)O)CC5)cc4)cn3)cnn2C)n1.Cl [Example 20, 1-[4-[6-[5-[(6-isopropoxypyrazin-2-yl)amino]-1-methyl-pyrazol-4-yl]-3-pyridyl]phenyl]cyclopropanecarboxylic Acid; Hydrochloride] | 83.4 ± 6.4% | 68.8 ± 6.0% | 103.5 ± 0.6% |
| 29.3 nM | 4620 nM | 18.2 nM | – | 53.8 nM | – | – | – | – | – | – | – | – | CC(C)c1cncc(Nc2c(-c3ccc(-c4ccc(C5(C(=O)O)CC5)cc4C#N)cn3)cnn2C)n1 [Example 16, 1-[3-cyano-4-[6-[5-[(6-isopropylpyrazin-2-yl)amino]-1-methyl-pyrazol-4-yl]-3-pyridyl]phenyl]cyclopropanecarboxylic Acid; Hydrochloride] | – | – | – |
